The results in this text go back to a polymer gas permeability compilation.

Molecules are shown by their SMILES.

With `*c1cc(-c2nc3cc(-c4ccc5[nH]c(*)nc5c4)ccc3[nH]2)cc(C(C)(C)C)c1` (repeat unit), the CH4 permeability was 0.05 Barrer, the CO2 permeability was 1.91 Barrer, the H2 permeability stood at 10.7 Barrer and the N2 permeability was determined as 0.06 Barrer. Also, the O2 permeability worked out at 0.42 Barrer.
In the same order, the values of `*C(=C(*)c1ccc(O[Si](C)(C)C(C)(C)C)cc1)c1ccc(F)cc1` (repeat unit) are 140 Barrer, 800 Barrer, 315 Barrer, 55 Barrer and 140 Barrer.
The like results for `*OC(=O)Oc1ccc(C2(c3ccc(*)cc3)CC3CCC2C3)cc1` (repeat unit) were, in that order, 0.48 Barrer, 9.1 Barrer, 22 Barrer, 0.47 Barrer and 2.4 Barrer.
Regarding `*C(=C(*)c1ccc([Si](C)(C)CCCCCCCC)cc1)c1ccc(CCCC)cc1` (repeat unit), the CO2 permeability worked out at 110 Barrer, the N2 permeability worked out at 7.9 Barrer and the O2 permeability worked out at 25 Barrer.
`*Oc1c(Br)cc(C2(c3cc(Br)c(OC(=O)c4cc(C(*)=O)cc(C(C)(C)C)c4)c(Br)c3)OC(=O)c3ccccc32)cc1Br` (repeat unit) returned a CH4 permeability of 1.09 Barrer, a CO2 permeability of 30.6 Barrer, an H2 permeability of 67.4 Barrer and an N2 permeability of 1.19 Barrer. The same compound displayed an O2 permeability of 7.41 Barrer.
`*/C=C/c1ccc(*)cc1[Si](C)(C)CCCCCCCCCCCCCCCCCC` (repeat unit) displayed a CO2 permeability of 61 Barrer, an N2 permeability of 4.5 Barrer and an O2 permeability of 12 Barrer.
Compound `*c1ccc(Oc2ccc(C(c3ccc(Oc4ccc(N5C(=O)c6ccc(-c7ccc8c(c7)C(=O)N(*)C8=O)cc6C5=O)cc4)cc3)(C(F)(F)F)C(F)(F)F)cc2)cc1` (repeat unit) registered a CH4 permeability of 0.18 Barrer, a CO2 permeability of 6.14 Barrer, an H2 permeability of 17.3 Barrer and an N2 permeability of 0.275 Barrer. This compound came in with an O2 permeability of 1.6 Barrer.
As for `*c1ccc2c(c1)-c1nc3ccc(-c4ccc5c(c4)nc4n5C(=O)c5cc(C(c6ccc7c(c6)C(=O)N(*)C7=O)(C(F)(F)F)C(F)(F)F)ccc5-4)cc3n1C2=O` (repeat unit), the CH4 permeability was determined as 8.1 Barrer, the CO2 permeability worked out at 294 Barrer, the H2 permeability stood at 376 Barrer and the N2 permeability came to 13 Barrer. Besides, the O2 permeability was determined as 65 Barrer.
`*c1ccc(N(c2ccccc2)c2ccc(N3C(=O)c4ccc(C(c5ccc6c(c5)C(=O)N(*)C6=O)(C(F)(F)F)C(F)(F)F)cc4C3=O)cc2)cc1` (repeat unit) displayed a CH4 permeability of 0.08 Barrer, a CO2 permeability of 4.73 Barrer, an N2 permeability of 0.08 Barrer and an O2 permeability of 0.69 Barrer.
`*c1c(C)cc2c(c1C)C1c3ccccc3C2c2cc(C)c(N3C(=O)c4ccc(C(c5ccc6c(c5)C(=O)N(*)C6=O)(C(F)(F)F)C(F)(F)F)cc4C3=O)c(C)c21` (repeat unit) displayed a CH4 permeability of 121 Barrer, a CO2 permeability of 1730 Barrer, an H2 permeability of 1400 Barrer and an N2 permeability of 113 Barrer. The same compound showed an O2 permeability of 374 Barrer.
Compound `*Oc1ccc(S(=O)(=O)c2ccc(Oc3ccc(C(C)(C)c4ccc(*)c(C)c4)cc3C)cc2)cc1` (repeat unit) came in with a CH4 permeability of 0.0706 Barrer, a CO2 permeability of 2.1 Barrer, an N2 permeability of 0.0914 Barrer and an O2 permeability of 0.64 Barrer.
As to `*c1ccc2c(-c3c(OC(C)=O)ccc4cc(N5C(=O)c6ccc(C(c7ccc8c(c7)C(=O)N(*)C8=O)(C(F)(F)F)C(F)(F)F)cc6C5=O)ccc34)c(OC(C)=O)ccc2c1` (repeat unit), the CH4 permeability is 0.12 Barrer, the CO2 permeability was 5.05 Barrer, the H2 permeability was 6.56 Barrer and the N2 permeability was 0.23 Barrer. The O2 permeability was 1.19 Barrer.
In the same order, the values of `*c1c(C)c(C)c(N2C(=O)c3ccc(C(c4ccc5c(c4)C(=O)N(*)C5=O)(C(F)(F)F)C(F)(F)F)cc3C2=O)c(C)c1C` (repeat unit) are 45.2 Barrer, 734 Barrer, 434 Barrer, 37.8 Barrer and 87 Barrer.
With `*Oc1cccc2c(Oc3ccc(S(=O)(=O)c4ccc(*)cc4)cc3)cccc12` (repeat unit), the CH4 permeability came to 0.036 Barrer, the CO2 permeability amounted to 1.6 Barrer, the N2 permeability is 0.057 Barrer and the O2 permeability was found to be 0.42 Barrer.
Regarding `*C(C)=C(*)C(C)C` (repeat unit), the CH4 permeability came out at 2690 Barrer, the CO2 permeability was determined as 10700 Barrer, the H2 permeability was 5720 Barrer and the N2 permeability was 1250 Barrer. This compound also showed an O2 permeability of 2700 Barrer.
In the case of `*Oc1ccc(S(=O)(=O)c2ccc(Oc3c(C)cc(C(c4cc(C)c(*)c(C)c4)(C(F)(F)F)C(F)(F)F)cc3C)cc2C(O)(C(F)(F)F)C(F)(F)F)c(C(O)(C(F)(F)F)C(F)(F)F)c1` (repeat unit), the CO2 permeability is 81 Barrer, the N2 permeability stood at 5.92 Barrer and the O2 permeability was determined as 14 Barrer.
In the case of `*Oc1cc2c(cc1O*)C1(CC2(C)C)CC(C)(C)c2cc3c(cc21)Oc1c(CN)c(*)c(*)c(CN)c1O3` (repeat unit), the CH4 permeability was found to be 257 Barrer, the CO2 permeability amounted to 1590 Barrer, the H2 permeability came to 2280 Barrer and the N2 permeability was 176 Barrer. The O2 permeability was 752 Barrer.
Regarding `*c1ccc(Oc2ccc(N3C(=O)c4ccc(S(=O)(=O)c5ccc6c(c5)C(=O)N(*)C6=O)cc4C3=O)cc2)cc1` (repeat unit), the H2 permeability is 5.61 Barrer, the N2 permeability came to 0.027 Barrer and the O2 permeability amounted to 0.2 Barrer.
Compound `*OC1OC(OC(C)=O)C(*)C(O)C1OC(C)=O` (repeat unit) came in with a CH4 permeability of 0.15 Barrer, a CO2 permeability of 3.5 Barrer, an H2 permeability of 12 Barrer and an N2 permeability of 0.14 Barrer. For the same compound, the O2 permeability was 0.735 Barrer.
On to `*CC(C)C(=O)OC(C)C(*)=O` (repeat unit), for which the CH4 permeability amounted to 1 Barrer, the CO2 permeability stood at 0.905 Barrer, the N2 permeability came to 0.04 Barrer and the O2 permeability worked out at 0.26 Barrer.
For `*CC(*)C` (repeat unit), the CO2 permeability is 9.2 Barrer, the N2 permeability is 0.5 Barrer and the O2 permeability came to 1.41 Barrer.
For the compound `*CCC[Si](*)(C)C` (repeat unit), the CH4 permeability stood at 8.4 Barrer, the N2 permeability was determined as 3 Barrer and the O2 permeability stood at 9.5 Barrer.
For `*Oc1ccc(S(=O)(=O)c2ccc(Oc3ccc(C(C)(C)c4ccc(*)c(C(O)(C(F)(F)F)C(F)(F)F)c4)cc3C(O)(C(F)(F)F)C(F)(F)F)cc2)cc1` (repeat unit), the CO2 permeability was 5.4 Barrer, the N2 permeability stood at 0.22 Barrer and the O2 permeability was 1.5 Barrer.
With `*Oc1c(C)cc(C(C)(C)c2ccc(C(C)(C)c3cc(C)c(Oc4ccc(S(=O)(=O)c5ccc(*)cc5)cc4)c(C)c3)cc2)cc1C` (repeat unit), the CH4 permeability is 0.6 Barrer, the CO2 permeability was 13.2 Barrer, the N2 permeability came out at 0.571 Barrer and the O2 permeability worked out at 3.2 Barrer.
In the same order, the values of `*c1c(C)c2c(c(N3C(=O)c4ccc(Oc5ccc6c(c5)C(=O)N(*)C6=O)cc4C3=O)c1C)C(C)(C)CC2` (repeat unit) are 10.3 Barrer, 161 Barrer, 10.3 Barrer and 43.9 Barrer.
In turn, `*Oc1ccc(C(C)(C)c2ccc(Oc3ccc4c(c3)C(=O)N(c3ccc(N5C(=O)c6ccc(*)cc6C5=O)cc3)C4=O)cc2)cc1` (repeat unit) came in with a CH4 permeability of 0.04 Barrer, a CO2 permeability of 1.8 Barrer and an O2 permeability of 0.4 Barrer.
The compound `*c1c(C)cc(-c2cc(C)c(N3C(=O)c4cc5c(cc4C3=O)C3(CC(C)(C)c4cc6c(cc43)C(=O)N(*)C6=O)CC5(C)C)c3ccccc23)c2ccccc12` (repeat unit) registered a CH4 permeability of 359 Barrer, a CO2 permeability of 4030 Barrer, an H2 permeability of 1620 Barrer and an N2 permeability of 212 Barrer. The same compound registered an O2 permeability of 640 Barrer.
The like results for `*Oc1ccc(S(=O)(=O)c2ccc(Oc3c(C)cc(C(C)(C)c4cc(C)c(*)c(C)c4)cc3C)cc2)cc1` (repeat unit) were, in that order, 0.522 Barrer, 21 Barrer, 15.5 Barrer, 1.06 Barrer and 5.6 Barrer.
As for `*C(=C(*)c1ccc2c(c1)Cc1ccccc1-2)c1ccc([Si](C)(C)C)cc1` (repeat unit), the CH4 permeability was 2000 Barrer, the CO2 permeability was determined as 6450 Barrer, the H2 permeability stood at 3100 Barrer and the N2 permeability was determined as 950 Barrer. In addition, the O2 permeability amounted to 1650 Barrer.
In the same order, the values of `*Oc1ccc(C(C)(C)c2ccc(Oc3ccc(C(=O)c4ccc(C(C)(C)c5ccc(C(=O)c6ccc(*)cc6)cc5)cc4)cc3)cc2)cc1` (repeat unit) are 0.22 Barrer, 4.4 Barrer, 12.4 Barrer, 0.21 Barrer and 1.1 Barrer.
Compound `*Oc1ccc2c(c1)C1(CC2(C)C)CC(C)(C)c2ccc(OC(=O)c3cccc(C(*)=O)c3)cc21` (repeat unit) yielded a CH4 permeability of 1.14 Barrer, a CO2 permeability of 18.9 Barrer, an N2 permeability of 1 Barrer and an O2 permeability of 5.31 Barrer.
On to `*c1ccc(-c2nc3cc(-c4ccc5[nH]c(*)nc5c4)ccc3[nH]2)cc1` (repeat unit), for which the H2 permeability stood at 0.16 Barrer and the O2 permeability worked out at 0.004 Barrer.
For the compound `*Oc1ccc(Oc2ccc(C(=O)c3ccc(*)cc3)cc2)cc1` (repeat unit), the CH4 permeability amounted to 0.0311 Barrer, the CO2 permeability turned out to be 0.963 Barrer, the N2 permeability was determined as 0.0398 Barrer and the O2 permeability was 0.259 Barrer.
